# Experimental data as given in patent US9115082B2, “Dipeptidyl-peptidase-IV inhibitors for treatment of type 2 diabetes complex with hypertension” (priority 2012, dated 2015).
# Test system: blood glucose
# Test: oral glucose tolerance test in diet-induced obese mice
# Type: in vivo, Male C57BL/6 mice
# Conditions: fasted DIO mice, 1 hour before glucose (2 g/kg) challenge
# Protocol: Specifically, an oral glucose tolerance test in diet-induced obese mice were conducted. Male C57BL/6 mice (6-8 weeks of age) were used. Mice were fed a lean (control group) or high-fat (DIO group) diet (5 and 35% fat by weight, respectively) for 6-9 weeks and then administered an oral glucose tolerance test. […] Blood glucose was determined at various time points from tail bleeds using a glucometer. The blood glucose response curve (AUC's, t==2 hours) are 18.7±1.6, 20.1±0.7, 21.3±11.5 for above three groups, respectively.
compound,measurement,setting,value
"Cl.N#CC1CCCN1C(=O)CNCC(O)COc1ccccc1 (stereo not drawn) [compound 7, 1-(2-(2-hydroxy-3-phenoxypropylamino)acetyl)pyrrolidine-2-carbonitrile hydrochloride]","blood glucose response curve (AUC's, t==2 hours)",3 mg/kg oral,21.3±11.5
same,"blood glucose response curve (AUC's, t==2 hours)",10 mg/kg oral,20.1±0.7
same,"blood glucose response curve (AUC's, t==2 hours)",30 mg/kg oral,18.7±1.6
